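Results reflect a 48-hour exposure of cells in 96-well plates to compound at five concentrations. GI50 marks 50% less growth.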 Calls of active or inactive are those of the source. No stated cut-off is given here; in the data, active = GI50 up to about 1.1 µM and inactive = higher.
Tests used:
Assay in all cases: inhibition of tumour cell growth, NCI panel, 48 h
A498 = test system: A498
ACHN = test system: ACHN
BT-549 = test system: BT-549
HT-29 = test system: HT-29
LOX IMVI = test system: LOX IMVI
Malme-3M = test system: Malme-3M
NCI-H23 = test system: NCI-H23
RPMI-8226 = test system: RPMI-8226
SK-MEL-28 = test system: SK-MEL-28
SW-620 = test system: SW-620
TK-10 = test system: TK-10
U-251 = test system: U-251
UACC-257 = test system: UACC-257
UACC-62 = test system: UACC-62
CCRF-CEM = test system: CCRF-CEM
M14 = test system: M14
OVCAR-3 = test system: OVCAR-3
SF-295 = test system: SF-295
SF-539 = test system: SF-539
RXF 393 = test system: RXF 393

| SMILES | GI50 (A498) | GI50 (ACHN) | GI50 (BT-549) | GI50 (HT-29) | GI50 (LOX IMVI) | GI50 (Malme-3M) | GI50 (NCI-H23) | GI50 (RPMI-8226) | GI50 (SK-MEL-28) | GI50 (SW-620) | GI50 (TK-10) | GI50 (U-251) | GI50 (UACC-257) | GI50 (UACC-62) | GI50 (CCRF-CEM) | GI50 (M14) | GI50 (OVCAR-3) | GI50 (SF-295) | GI50 (SF-539) | GI50 (RXF 393) |
| --- | --- | --- | --- | --- | --- | --- | --- | --- | --- | --- | --- | --- | --- | --- | --- | --- | --- | --- | --- | --- |
| Cc1ccc(-c2c(C#N)c(N)nc3c2CCS(=O)(=O)c2ccccc2-3)cc1 | > 100 µM (inactive) | 52.4 µM (inactive) | 95.3 µM (inactive) | > 100 µM (inactive) | > 100 µM (inactive) | 39.4 µM (inactive) | > 100 µM (inactive) | > 100 µM (inactive) | 72.4 µM (inactive) | > 100 µM (inactive) | 59.7 µM (inactive) | 68.2 µM (inactive) | 65 µM (inactive) | 57.3 µM (inactive) |  |  |  |  |  |  |
| N/C(S)=N/N=C/c1ccc(O)cn1 | 32 µM (inactive) | 1.73 µM (inactive) | 44.5 µM (inactive) | 22.3 µM (inactive) | 5.13 µM (inactive) | 7.55 µM (inactive) | 6.11 µM (inactive) | 10.7 µM (inactive) | 30.1 µM (inactive) | 15.4 µM (inactive) | 105 µM (inactive) | 6.18 µM (inactive) | 22.4 µM (inactive) |  | 1.78 µM (inactive) | 5.11 µM (inactive) | 3.52 µM (inactive) | 20.4 µM (inactive) | 2.26 µM (inactive) |  |
| Nc1c(/N=N/c2ccc(-c3ccc(/N=N/c4c(O)ccc5cc(S(=O)(=O)O)cc(S(=O)(=O)O)c45)cc3)cc2)c(S(=O)(=O)O)cc2cc(S(=O)(=O)O)c(/N=N/c3ccccc3)c(O)c12 | > 100 µM (inactive) |  |  | > 100 µM (inactive) | > 69 µM (inactive) | > 100 µM (inactive) | > 96.8 µM (inactive) | > 100 µM (inactive) | > 100 µM (inactive) | > 100 µM (inactive) |  | > 100 µM (inactive) | > 100 µM (inactive) | > 100 µM (inactive) | > 100 µM (inactive) |  | > 100 µM (inactive) | > 77.1 µM (inactive) | > 100 µM (inactive) | > 100 µM (inactive) |
| COc1ccc(N2C(=O)c3c4c(c5c([nH]c6ncccc65)c3C2=O)CCC(C(C)(C)C)C4)cc1 (centres undefined) |  | 40.6 µM (inactive) | 84.9 µM (inactive) | > 100 µM (inactive) |  |  | 67 µM (inactive) | > 100 µM (inactive) | > 100 µM (inactive) | > 100 µM (inactive) | 66.4 µM (inactive) | 31 µM (inactive) | > 100 µM (inactive) | 30.3 µM (inactive) | > 100 µM (inactive) | > 100 µM (inactive) | > 100 µM (inactive) | 45.6 µM (inactive) | 41.9 µM (inactive) | 34.6 µM (inactive) |
| COc1cc(C2c3cc(OC)c(OC)c(O)c3C(=O)C3CCC(=O)N32)cc(OC)c1OC (centres undefined) | > 100 µM (inactive) | > 100 µM (inactive) | 25.2 µM (inactive) | 70 µM (inactive) | 40.8 µM (inactive) |  |  | 28.8 µM (inactive) | > 100 µM (inactive) | 35.6 µM (inactive) | > 100 µM (inactive) | 86.7 µM (inactive) | > 100 µM (inactive) | 64 µM (inactive) |  | > 100 µM (inactive) | 34.1 µM (inactive) | > 100 µM (inactive) | > 100 µM (inactive) |  |
| CC1(C)C[C@H]2C=C(C=O)[C@]34C[C@]3(C(=O)OC4O)[C@H]2C1 (some centres undefined) | 3.06 µM (inactive) | 1.53 µM (inactive) | 1.97 µM (inactive) | 1.87 µM (inactive) | 1.24 µM (inactive) | 1.73 µM (inactive) | 1.66 µM (inactive) | 4.54 µM (inactive) | 2.92 µM (inactive) | 3.92 µM (inactive) | 1.77 µM (inactive) | 8.77 µM (inactive) | 2.11 µM (inactive) | 1.97 µM (inactive) | 0.813 µM (active) | 1.44 µM (inactive) | 2.84 µM (inactive) | 1.55 µM (inactive) | 1.68 µM (inactive) |  |
| Cn1c(=O)c2c(nc(Cc3ccccc3)n2CC(=O)O)n(C)c1=O | > 100 µM (inactive) | > 100 µM (inactive) | > 100 µM (inactive) | > 100 µM (inactive) | > 100 µM (inactive) | > 100 µM (inactive) | > 100 µM (inactive) |  | > 100 µM (inactive) | > 100 µM (inactive) | > 100 µM (inactive) | > 100 µM (inactive) | > 100 µM (inactive) | > 100 µM (inactive) | > 100 µM (inactive) | > 100 µM (inactive) | > 100 µM (inactive) | > 100 µM (inactive) |  | > 100 µM (inactive) |
| CC(=O)N1OC(C)CC1Nc1ccc(Br)cc1 (centres undefined) | > 100 µM (inactive) | 0.415 µM (active) | 65.3 µM (inactive) | 75.9 µM (inactive) |  | > 100 µM (inactive) | > 100 µM (inactive) |  |  | 0.76 µM (active) | 14.7 µM (inactive) | 1.99 µM (inactive) |  | 88.3 µM (inactive) | 0.452 µM (active) | 1.6 µM (inactive) | 82.4 µM (inactive) | > 100 µM (inactive) | 5.77 µM (inactive) | > 100 µM (inactive) |
